Assay: Remineralizing properties on EDTA-etched dentin blocks soaked in simulated body fluid (SEM/EDX)
Conditions: 15 μL applied on dentin etched by 10% EDTA; soaked in simulated body fluid for 7 d; PDDAF 280,000 ppm, SDF 38%
Description: The volume of both solutions applied on dentin surface is 15 μL.
The remineralizing properties of 280,000 ppm cationic polymer fluoride solution was examined. […] Dentin blocks with the dimensions of 4 mm×4 mm×2 mm were prepared (FIGS. 8C-8D, 9C-9D).

silver diamine fluoride [38% SDF]
minerals formed on re-mineralized dentin surface (EDX): formation of mineral calcium phosphate and silver chloride

— US20250026880A1, “POLY(DIALLYLDIMETHYLAMMONIUM) FLUORIDE - A NEW ANTI-CARIES AND REMINERALIZING AGENT” (The University of Hong Kong, priority 2023, published 2025)
